According to EP4603105A1, “PHARMACEUTICAL COMPOSITION CONTAINING CYCLIC COMPOUND HAVING SELECTIVE KRAS INHIBITORY EFFECT AGAINST HRAS AND NRAS” (CHUGAI SEIYAKU KABUSHIKI KAISHA, priority 2022, dated 2024):
Like-named read-outs stand apart in the source and are kept apart here.

Tests used:
[1] = biological target: GDP-bound KRAS wild-type protein (Homo sapiens, UniProt P01116); assay: Binding to KRAS by surface plasmon resonance (SPR), dissociation constant KD
Outline: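 Recombinant RAS proteins bearing a biotinylated Avi tag and loaded with GDP served as the captured ligand, recaptured fresh every cycle. Binding responses were referenced to an uncoated surface and a buffer-only blank cycle. Dissociation constants were obtained by 1:1 model fitting at 30°C.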

[2] = biological target: GDP-bound NRAS wild-type protein (Homo sapiens, UniProt P01111); assay: Binding to NRAS by surface plasmon resonance (SPR), KD and KD ratio to KRAS
Outline: (§1)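 Single-cycle kinetics on GDP-loaded biotin-Avi RAS captured to ~100–300 RU; 75 s ascending injections, 100 µL/min, 30°C. HBS pH 7.4 + 10 mM MgCl2/10 µM GDP/4% DMSO. 1:1 fit, KD.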

HRAS wild-type protein = HRAS wild-type protein (Homo sapiens, UniProt P01112); assay: Binding to HRAS by surface plasmon resonance (SPR), KD and KD ratio to KRAS
Outline: as §1

[3] = test system: human lung cancer strain NCI-H441; assay: NCI-H441 cell proliferation inhibitory activity (CellTiter-Glo, 4 days); format: cell-based; conditions: read-out: NCl-H441 IC50
Outline: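 Proliferation was scored by […] measured after the reagent was added to cultures kept at 37°C in 5% carbon dioxide.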

[4] = ratio of KD for GDP-bound NRAS wild-type protein to KD for KRAS
[5] = ratio of KD for HRAS wild-type protein to KD for KRAS

GDP-bound KRAS wild-type protein, sequence (P01116 1-188 isoform P01116-2): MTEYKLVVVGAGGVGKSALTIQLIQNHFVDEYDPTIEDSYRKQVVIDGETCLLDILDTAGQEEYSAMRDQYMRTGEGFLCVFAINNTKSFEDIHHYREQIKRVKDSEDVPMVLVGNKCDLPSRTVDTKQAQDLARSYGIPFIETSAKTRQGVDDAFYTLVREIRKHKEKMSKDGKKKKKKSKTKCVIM
HRAS wild-type protein, sequence (P01112 whole entry): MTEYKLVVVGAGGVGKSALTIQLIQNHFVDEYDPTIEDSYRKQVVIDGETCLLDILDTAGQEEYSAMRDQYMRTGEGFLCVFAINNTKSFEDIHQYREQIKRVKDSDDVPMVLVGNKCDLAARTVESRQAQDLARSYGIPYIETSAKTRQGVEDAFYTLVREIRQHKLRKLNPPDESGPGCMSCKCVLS
GDP-bound NRAS wild-type protein, sequence (P01111 whole entry): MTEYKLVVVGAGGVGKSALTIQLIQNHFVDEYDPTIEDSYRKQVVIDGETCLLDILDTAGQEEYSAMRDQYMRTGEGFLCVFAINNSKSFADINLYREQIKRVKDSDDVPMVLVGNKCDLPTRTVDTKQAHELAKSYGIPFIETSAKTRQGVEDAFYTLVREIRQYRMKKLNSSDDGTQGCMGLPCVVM

| Kd ([1]; Single Cycle Kinetics) | IC50 ([3]; NCI-H441 cells, 4 days) | Kd ([1]; 1:1 binding model) | Kd ([1]; Single Cycle Kinetics, 1:1 binding model) | IC50 ([3]; 50% proliferation inhibitory concentration, four days) | Compound | NRAS /KRAS [2, 4] | HRAS /KRAS (HRAS wild-type protein; [5]) | NRAS /KRAS ([2]; ratio of KD with respect to GDP-bound NRAS wild-type protein to KD with respect to KRAS) | HRAS /KRAS (HRAS wild-type protein; ratio of KD with respect to HRAS wild-type protein to KD with respect to KRAS) |
| --- | --- | --- | --- | --- | --- | --- | --- | --- | --- |
| 0.97 nM | 50.4 nM | – | – | – | CCCO[C@@H]1C[C@H]2C(=O)NC3(CC(C)(C)C3)C(=O)N(C)[C@@H](C3CCCC3)C(=O)N(C)[C@H](C(=O)N(C)CC)CC(=O)N(C)[C@@H](COCC)C(=O)N[C@@H]([C@@H](C)CC)C(=O)N3CCC[C@H]3C(=O)N(C)[C@H]3C/C=C\CCN(C3=O)[C@@H](Cc3ccc(C)cc3)C(=O)N(C)CC(=O)N[C@@H](CCc3ccc(C(F)(F)F)c(Cl)c3)C(=O)N2C1 [PP3463] | A (a compound having 10 or more and less than 20 is denoted as A) | A (a compound having 10 or more and less than 20 is denoted as A) | – | – |
| – | 394 nM | 4.6 nM | – | – | CCC[C@H]1C(=O)N[C@@H](CC(C)C)C(=O)N(CCOC)CC(=O)N(C)[C@H]2C/C=C\CCN(C2=O)[C@@H](Cc2ccc(C)cc2)C(=O)N(C)CC(=O)N[C@@H](CCc2ccc(C(F)(F)F)c(OC)c2)C(=O)N2C[C@H](OCC)C[C@H]2C(=O)NC2(CCC2)C(=O)N(C)[C@@H](C2CCCC2)C(=O)N(C)[C@H](C(=O)N(C)C)CC(=O)N1C [PP2542] | B (a compound having 3 or more and less than 10 is denoted as B) | B (a compound having 3 or more and less than 10 is denoted as B) | – | – |
| 0.11 nM | 3.1 nM | – | – | – | CCC[C@H]1C(=O)N[C@@H]([C@@H](C)CC)C(=O)N(C)CC(=O)N(C)[C@H]2C/C=C\CCN(C2=O)[C@@H](Cc2ccc(C(F)(F)F)cc2)C(=O)N(C)CC(=O)N[C@@H](CCc2cc(F)c(C(F)(F)F)c(F)c2)C(=O)N2CC3(CC3)C[C@H]2C(=O)N(C)C2(CCC2)C(=O)N(C)[C@@H]([C@@H](C)CC)C(=O)N(C)[C@H](C(=O)N(C)C)CC(=O)N1C [PP3358] | A (a compound having 10 or more and less than 20 is denoted as A) | A (a compound having 10 or more and less than 20 is denoted as A) | – | – |
| – | 2.9 nM | 0.16 nM | – | – | CCC[C@H]1C(=O)N[C@@H]([C@@H](C)CC)C(=O)N(C2CC2)CC(=O)N(C)[C@H]2C/C=C\CCN(C2=O)[C@@H](Cc2ccc(C(F)(F)F)cc2)C(=O)N(C)CC(=O)N[C@@H](CCc2ccc(C(F)(F)F)c(OC)c2)C(=O)N2C[C@@H](C)C[C@H]2C(=O)N(C)C2(CCC2)C(=O)N(C)[C@@H](C2CCCC2)C(=O)N(C)[C@H](C(=O)N(C)C)CC(=O)N1C [PP2360] | A (a compound having 10 or more and less than 20 is denoted as A) | B (a compound having 3 or more and less than 10 is denoted as B) | – | – |
| – | – | – | 0.23 nM | 11.5 nM | CCO[C@@H]1C[C@H]2C(=O)NC3(CCC3)C(=O)N(C)[C@@H](C3CCCC3)C(=O)N(C)[C@H](C(=O)N3CCOCC3)CC(=O)N(C)[C@@H](CC)C(=O)N[C@@H]([C@@H](C)CC)C(=O)N3CC[C@H]3C(=O)N(C)[C@H]3CC[C@@H](C)CN(C3=O)[C@@H](Cc3ccc(C(F)(F)F)cc3)C(=O)N(C)CC(=O)N[C@@H](CCc3ccc(C(F)(F)F)c(Cl)c3)C(=O)N2C1 [PP1375] | – | – | B (a compound having 3 or more and less than 10 is denoted as B) | B (a compound having 3 or more and less than 10 is denoted as B) |
| 1.1 nM | 18.7 nM | – | – | – | CCO[C@@H]1C[C@H]2C(=O)OC3(CCC3)C(=O)N(C)[C@@H](C3CCCC3)C(=O)N(C)[C@H](C(=O)N(C)C)CC(=O)N(C)[C@@H](CC(C)C)C(=O)N[C@@H]([C@@H](C)CC)C(=O)N(C3CC3)CC(=O)N(C)[C@H]3C/C=C\CCN(C3=O)[C@@H](Cc3ccc(C)cc3)C(=O)N(C)CC(=O)N[C@@H](CCc3ccc(C(F)(F)F)c(OC)c3)C(=O)N2C1 [PP3381] | A (a compound having 10 or more and less than 20 is denoted as A) | A (a compound having 10 or more and less than 20 is denoted as A) | – | – |
| 0.1 nM | 2.8 nM | – | – | – | C#CC[C@H]1C(=O)N[C@@H]([C@@H](C)CC)C(=O)N(C2CC2)CC(=O)N(C)[C@H]2C/C=C\CCN(C2=O)[C@@H](Cc2ccc(C)cc2)C(=O)N(C)CC(=O)N[C@@H](CCc2cc(F)c(C(F)(F)F)c(F)c2)C(=O)N2C[C@H](OCC)C[C@H]2C(=O)N(C)C2(CCC2)C(=O)N(C)[C@@H](C2CCCC2)C(=O)N(C)[C@H](C(=O)N(C)C)CC(=O)N1C [PP3250] | A (a compound having 10 or more and less than 20 is denoted as A) | B (a compound having 3 or more and less than 10 is denoted as B) | – | – |
| – | 207 nM | 4.6 nM | – | – | CCC[C@H]1C(=O)N[C@@H](CC(C)C)C(=O)N(CC)CC(=O)N(C)[C@H]2C/C=C\CCN(C2=O)[C@@H](Cc2ccc(C)cc2)C(=O)N(C)CC(=O)N[C@@H](CCc2ccc(C(F)(F)F)c(Cl)c2)C(=O)N2C[C@H](OCC)C[C@H]2C(=O)NC2(CC(C)(C)C2)C(=O)N(C)[C@@H](C2CCCC2)C(=O)N(C)[C@H](C(=O)N(C)C)CC(=O)N1C [PP2528] | A (a compound having 10 or more and less than 20 is denoted as A) | B (a compound having 3 or more and less than 10 is denoted as B) | – | – |
| – | 102 nM | 1.9 nM | – | – | CCC[C@H]1C(=O)N[C@@H]([C@@H](C)CC)C(=O)N(C2CC2)CC(=O)N(C)[C@H]2C/C=C\CCN(C2=O)[C@@H](CC2CCC(F)(F)CC2)C(=O)N(C)CC(=O)N[C@@H](CCc2ccc(Cl)c(Cl)c2)C(=O)N2C[C@H](OCC)C[C@H]2C(=O)NC2(CC(C)(C)C2)C(=O)N(C)[C@@H](C2CCCC2)C(=O)N(C)[C@H](C(=O)N(C)C)CC(=O)N1C [PP2567] | A (a compound having 10 or more and less than 20 is denoted as A) | A (a compound having 10 or more and less than 20 is denoted as A) | – | – |
| – | 31.9 nM | 0.48 nM | – | – | CC[C@H](C)[C@@H]1NC(=O)[C@H](CC(C)C)N(C)C(=O)C[C@@H](C(=O)N(C)C)N(C)C(=O)[C@H](C2CCCC2)N(C)C(=O)C2(CC(C)(C)C2)NC(=O)[C@@H]2C[C@H](C)CN2C(=O)[C@H](CCc2ccc(C(F)(F)F)c(OC)c2)NC(=O)CN(C)C(=O)[C@H](Cc2ccc(C)cc2)N2CC/C=C\C[C@@H](C2=O)N(C)C(=O)[C@@H]2CCCN2C1=O [PP2409] | A (a compound having 10 or more and less than 20 is denoted as A) | B (a compound having 3 or more and less than 10 is denoted as B) | – | – |
| 2.4 nM | 29.3 nM | – | – | – | CCC[C@H]1C(=O)N[C@@H](C23CC(C2)C3)C(=O)N2CCC[C@H]2C(=O)N(C)[C@H]2C/C=C\CCN(C2=O)[C@@H](Cc2ccc(C(F)(F)F)cc2)C(=O)N(C)CC(=O)N[C@@H](CCc2ccc(C(F)(F)F)c(OC)c2)C(=O)N2C[C@H](OCC)C[C@H]2C(=O)N(C)C2(CCC2)C(=O)N(C)[C@@H](C2CCCC2)C(=O)N(C)[C@H](C(=O)N(C)C)CC(=O)N1C [PP3343] | A (a compound having 10 or more and less than 20 is denoted as A) | A (a compound having 10 or more and less than 20 is denoted as A) | – | – |
| 0.12 nM | 4.1 nM | – | – | – | C#CC[C@H]1C(=O)N[C@@H]([C@@H](C)CC)C(=O)N(C2CC2)CC(=O)N(C)[C@H]2C/C=C\CCN(C2=O)[C@@H](Cc2ccc(C)cc2)C(=O)N(C)CC(=O)N[C@@H](CCc2ccc(C(F)(F)F)c(Cl)c2)C(=O)N2C[C@H](OCC)C[C@H]2C(=O)N(C)C2(CCC2)C(=O)N(C)[C@@H](C2CCCC2)C(=O)N(C)[C@H](C(=O)N(C)C)CC(=O)N1C [PP3251] | B (a compound having 3 or more and less than 10 is denoted as B) | B (a compound having 3 or more and less than 10 is denoted as B) | – | – |
| 0.13 nM | 11.2 nM | – | – | – | CCC[C@H]1C(=O)N[C@@H]([C@@H](C)CC)C(=O)N(C)CC(=O)N(C)[C@H]2C/C=C\CCN(C2=O)[C@@H](Cc2ccc(C)cc2)C(=O)N(C)CC(=O)N[C@@H](CCc2ccc(C(F)(F)F)c(Cl)c2)C(=O)N2CC3(CC3)C[C@H]2C(=O)N(C)C2(CCC2)C(=O)N(C)[C@@H](C(CC)CC)C(=O)N(C)[C@H](C(=O)N(C)C)CC(=O)N1C [PP3300] | A (a compound having 10 or more and less than 20 is denoted as A) | B (a compound having 3 or more and less than 10 is denoted as B) | – | – |
| 0.052 nM | 9.3 nM | – | – | – | CCC[C@H]1C(=O)N[C@@H](C2CCCC2)C(=O)N(C)CC(=O)N(C)[C@H]2C/C=C\CCN(C2=O)[C@@H](Cc2ccc(C)cc2)C(=O)N(C)CC(=O)N[C@@H](CCc2cc(F)c(C(F)(F)F)c(F)c2)C(=O)N2CC3(CC3)C[C@H]2C(=O)N(C)C2(CCC2)C(=O)N(C)[C@@H](C2CCCC2)C(=O)N(C)[C@H](C(=O)N(C)C)CC(=O)N1C [PP3306] | A (a compound having 10 or more and less than 20 is denoted as A) | B (a compound having 3 or more and less than 10 is denoted as B) | – | – |
| – | 384 nM | 5.1 nM | – | – | CCC(CC)[C@H]1C(=O)N(C)[C@H](C(=O)N(C)C)CC(=O)N(C)[C@@H](COC)C(=O)N[C@@H]([C@@H](C)CC)C(=O)N(C2CC2)CC(=O)N(C)[C@H]2C/C=C\CCN(C2=O)[C@@H](CC2CCCCC2)C(=O)N(C)CC(=O)N[C@@H](CCc2cc(F)c(C(F)(F)F)c(F)c2)C(=O)N2C[C@H](OC(C)C)C[C@H]2C(=O)NC2(CC(C)(C)C2)C(=O)N1C [PP2515] | A (a compound having 10 or more and less than 20 is denoted as A) | A (a compound having 10 or more and less than 20 is denoted as A) | – | – |
